Test results as given in US9182397B2, “Immunoassay for detecting antibiotics” (DSM IP ASSETS B.V., priority 2011, dated 2015).

Assays:
[1] = test system: Penicillin binding protein purified from Bacillus stearothermophilus; assay: Lateral flow test strip, penicillin G in spiked milk (Example 3); design: key to Intensity of the detection zone: 0: no intensity; 1: low intensity; 2: medium intensity; 3: high intensity
Method: (§1) A nitrocellulose HF90 membrane (Millipore; length 25 mm) was used as a detection region. The membrane was glued to a polystyrene laminated card (thickness 0.254 mm) 8 mm from the proximal end of the card. Next, the detection zone and control zone were applied onto the nitrocellulose membrane. The detection zone was applied by dispensing 1 mg/ml of a 7ACA-spacer-BSA conjugate in 20 mM KPO4-buffer (pH 7.5) with a Biodot Dispense workstation XYZ 3050 with frontline at 0.2 μl/cm. The control zone was applied by dispensing 0.15 mg/ml of an anti-IgY antibody in 20 mM KPO4-buffer (pH 7.5) comprising 0.675 mg/ml BSA, 5% w/v saccharose and 20 mM NaCl with a Biodot Dispense workstation XYZ 3050 with frontline at 0.8 μl/cm. After drying of the zones, the nitrocellulose membrane was blocked by spraying a solution comprising 10 mM Tris buffer (pH 8) comprising 2% w/v BSA and 0.05% w/v Tween-20 using a Biodot Dispense workstation XYZ 3050 with airjet 3×. The solution was sprayed onto the membrane at a distance of 2 mm below the detection zone. Thereafter, the sample receiving region (VF2 membrane from Millipore; length 1 cm) was glued at the proximal end of the card overlapping 2 mm with the nitrocellulose membrane. The absorbing region (10038 membrane from Millipore; length 20 mm) was glued at the distal end of the card with an overlap of 2 mm on the nitrocellulose membrane. The obtained cards were dried at 37° C. in a dry atmosphere (0% relative humidity). The card was cut in strips of 5.2 mm width and kept at a dry atmosphere (0% relative humidity).
(§2) Streptavidin-coated gold particles were synthesized by reacting colloidal gold (diameter 40 nm; 1 OD/ml) with 10 μg/ml streptavidin. Next, the obtained solution was concentrated by tangential flow filtration, washed and stored in a Tris buffer (pH 8) including NaCN. Penicillin binding protein purified from Bacillus stearothermophilus was biotinylated (1:4) with D-biotinyl-epsilon-aminocaproic acid-N-hydroxysuccinimide ester. Next, the penicillin binding protein-gold conjugate was synthesized by reacting 1.5 μg biotinylated penicillin binding protein with 1 OD streptavidin-coated gold particles for 1 hour, followed by centrifugation at 10,000×g for 5 minutes and resuspension of the obtained pellet in 45 mM bicarbonate buffer comprising 0.1% w/v Triton X-100 (pH 9.6).
IgY-coated gold particles were synthesized by reacting colloidal gold (diameter 40 nm; 1 OD/ml with 10 μg/ml IgY. Next, the obtained solution was centrifuged at 7,500×g for 10 minutes and the obtained pellet was resuspended in a Tris buffer (pH 8), washed by another round of centrifugation and resuspension of the obtained pellet in a Tris buffer (pH 8) and stored in a Tris-buffer (pH 8) including NaCN.
(§3) Thereafter, 140-200 mOD of the penicillin binding protein-gold conjugate and 5-20 mOD of the IgY-gold conjugate was solubilized in 100 μl buffer (80 mM Tris buffer comprising 0.01% w/v Triton-X-100, 0.4% w/v BSA, 5% v/v glycerin and 2% w/v saccharose (pH 8.5)) and 0.75 μl of the solution was dispensed per tube and dried for 12 hours at 40° C. The obtained tubes were sealed.
(§4) 150 μl of spiked milk was added per tube containing the dried conjugates. The concentration of penicillin G in the added milk varied from 0 to 4 ng/g (tube 1: 0 ng/g; […]; tube 2: 2 ng/g; tube 3: 3 ng/g; and tube 4: 4 ng/g). The obtained liquid composition was incubated for 2 minutes at 64° C. in an incubator. A test device was put into the tube and incubated for 3 minutes at 64° C. in the incubator. The result was read by eye.

[2] = test system: Penicillin binding protein purified from Bacillus stearothermophilus; assay: Detection of Penicillin G with milk having a different initial temperature (Example 30); design: key: 0: no intensity; 1: low intensity; 2: medium intensity; 3: high intensity
Method: as §1, §2, §3, §4
The test was done essentially as described in Example 3, with the proviso that the test was done with milk having an initial different temperature (0° C., 4° C., 20° C. or 45° C.). The milk was allowed to reach room temperature shortly before the test was done.

[3] = test system: Penicillin binding protein purified from Bacillus stearothermophilus; assay: Detection of Penicillin G after storage of the test device at −20° C. or 30° C. (Example 26); design: key: 0: no intensity; 1: low intensity; 2: medium intensity; 3: high intensity
Method: as §1, §2, §3, §4
The test devices were produced as described above in Examples 1 and 2 and stored at different temperatures (−20° C. and 30° C.). At different time periods after production, the test device was used to detect penicillin G. The test was done essentially as described in Example 3.

In the case of `CC1(C)S[C@@H]2[C@H](NC(=O)Cc3ccccc3)C(=O)N2[C@H]1C(=O)O` [Penicillin G], the “Intensity of the detection zone compared with the intensity of the control zone” value ([1]; Penicillin G 1 ng/g in milk) is reported as “clearly higher”, the “Intensity of the detection zone” value ([1]; Penicillin G 1 ng/g in spiked milk, read by eye) is reported as 3 and the “Signal intensity of the detection zone compared with the signal intensity of the control zone” value ([1]; Penicillin G 2 ng/g in milk) is reported as “similar”. The “Intensity of the detection zone” value ([1]; Penicillin G 2 ng/g in spiked milk, read by eye) was 2, the “Signal intensity of the detection zone compared with the signal intensity of the control zone” value ([1]; Penicillin G 3 ng/g in milk) was “similar” and the “Intensity of the detection zone” value ([1]; Penicillin G 3 ng/g in spiked milk, read by eye) was 2. The “Intensity of the detection zone compared with the intensity of the control zone” value ([1]; Penicillin G 4 ng/g in milk) was “significantly lower”, the “Intensity of the detection zone” value ([1]; Penicillin G 4 ng/g in spiked milk, read by eye) was 1 and the “Concentration in the milk at which the signal of the detection zone clearly was less intense” value ([1]; spiked milk, read by eye) was ≥ 2 ng/g. The “Intensity of detection zone” value ([2]; Pen G 3 ppb, initial milk temperature 0 ° C.) was 2, the “Intensity of detection zone” value ([2]; Pen G 3 ppb, initial milk temperature 4 ° C.) was 2 and the “Intensity of detection zone” value ([2]; Pen G 3 ppb, initial milk temperature 20 ° C.) was 2. For the same compound, the “Intensity of detection zone” value ([2]; Pen G 3 ppb, initial milk temperature 45 ° C.) was 2, the “Intensity of detection zone” value ([2]; Pen G 4 ppb, initial milk temperature 0 ° C.) was 1 and the “Intensity of detection zone” value ([2]; Pen G 4 ppb, initial milk temperature 4 ° C.) was 1. The “Intensity of detection zone” value ([2]; Pen G 4 ppb, initial milk temperature 20 ° C.) was 1, the “Intensity of detection zone” value ([2]; Pen G 4 ppb, initial milk temperature 45 ° C.) was 1 and the “Intensity of detection zone” value ([3]; Pen G 3 ppb, test device stored 0 days at 30° C.) was 2. For the same compound, the “Intensity of detection zone” value ([3]; Pen G 3 ppb, test device stored 0 days at −20° C.) was 2, the “Intensity of detection zone” value ([3]; Pen G 3 ppb, test device stored 3 days at 30° C.) was 2 and the “Intensity of detection zone” value ([3]; Pen G 3 ppb, test device stored 3 days at −20° C.) was 2. The “Intensity of detection zone” value ([3]; Pen G 3 ppb, test device stored 7 days at 30° C.) was 2, the “Intensity of detection zone” value ([3]; Pen G 3 ppb, test device stored 7 days at −20° C.) was 2 and the “Intensity of detection zone” value ([3]; Pen G 3 ppb, test device stored 28 days at 30° C.) was 1. For the same compound, the “Intensity of detection zone” value ([3]; Pen G 3 ppb, test device stored 28 days at −20° C.) was 2, the “Intensity of detection zone” value ([3]; Pen G 4 ppb, test device stored 0 days at 30° C.) was 1 and the “Intensity of detection zone” value ([3]; Pen G 4 ppb, test device stored 0 days at −20° C.) was 1. For the same compound, the “Intensity of detection zone” value ([3]; Pen G 4 ppb, test device stored 3 days at 30° C.) was 1, the “Intensity of detection zone” value ([3]; Pen G 4 ppb, test device stored 3 days at −20° C.) was 1 and the “Intensity of detection zone” value ([3]; Pen G 4 ppb, test device stored 7 days at 30° C.) was 1. For the same compound, the “Intensity of detection zone” value ([3]; Pen G 4 ppb, test device stored 7 days at −20° C.) was 1, the “Intensity of detection zone” value ([3]; Pen G 4 ppb, test device stored 28 days at 30° C.) was 0 and the “Intensity of detection zone” value ([3]; Pen G 4 ppb, test device stored 28 days at −20° C.) was 1.
